Results taken from publication PMC5681660, “Reduced hepatitis B and D viral entry using clinically applied drugs as novel inhibitors of the bile acid transporter NTCP” (Scientific Reports, 2017).
“Also recorded” adds a separate entry of the source.

Key:
human NTCP [1] = target: T1, human NTCP (Homo sapiens, UniProt Q14973); assay: Taurocholate uptake inhibition studies in U2OS-HA-hNTCP cells; assay type: cell-based; design: HA; expressed in transfected cells
T1 sequence (Q14973 1-349): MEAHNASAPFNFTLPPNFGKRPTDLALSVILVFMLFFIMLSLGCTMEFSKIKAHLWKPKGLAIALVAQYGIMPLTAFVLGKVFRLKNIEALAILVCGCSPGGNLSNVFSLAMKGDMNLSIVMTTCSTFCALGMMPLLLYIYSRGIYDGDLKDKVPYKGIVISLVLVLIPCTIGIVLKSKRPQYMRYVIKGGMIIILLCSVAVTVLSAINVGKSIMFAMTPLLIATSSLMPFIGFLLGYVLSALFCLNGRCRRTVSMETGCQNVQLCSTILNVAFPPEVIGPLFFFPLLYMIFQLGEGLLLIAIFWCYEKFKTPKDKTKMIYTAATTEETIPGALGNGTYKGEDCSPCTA
Protocol: (§1) For MDCK or MDCK-hASBT cells 70.000 cells/well were plated in 24-well plates, followed by 24 hours 10 mM sodium butyrate (Sigma-Aldrich) stimulation the next day. Cells were used in the inhibition studies 24 hours (U2OS cell lines) or 48 hours (MDCK cell lines) later. Inhibition studies with mNTCP transiently transfected cells were conducted 48–72 hours after transfection.
(§2) Medium was aspirated from the wells and cells were washed once with 250 µL uptake buffer. Subsequently, cells were pre-incubated with drug in 150 µL uptake buffer for 10 minutes at 37 °C. Taurocholate uptake was initiated by addition of 100 µL uptake buffer containing taurocholate (final concentration 10 µM TC spiked with tritium-labeled TC) and cells were incubated for 2 minutes at 37 °C. Subsequently, cells were washed 4 times with ice-cold PBS and lysed with 0.05% SDS in water. Radioactivity was measured by liquid scintillation counting.

in vitro [2] = conditions: human, U2OS-HA-hNTCP cells
human NTCP [3] = target: T1, human NTCP; assay: Screening taurocholate uptake assay (96-well, [14C]taurocholate, 10 µM drug)
[4] = tested on: patient-derived HBV (genotype B); assay: Serum-derived HBV genotype B infection of HepaRG cells stably transduced with hNTCP; assay type: cell-based, hepatitis B virus; conditions: NTCP-overexpressing HepaRG cells
Protocol: Supplementary materials and methods Serum-derived HBV genotype B infection study For these experiments HepaRG cells stably transduced with hNTCP were used. Differentiation and serum-derived HBV genotype B infection were performed following similar protocols as described for wildtype HepaRG cells in the main materials&methods with the following changes: 8 hours infection and supernatant collection for HBeAg and HBsAg analysis from day 9 to 12. Total RNA was extracted from cells 12 days after infection using the NucleoSpin RNA isolation kit (Macherey-Nagel). Reverse transcription was performed with the High-Capacity cDNA Reverse Transcription Kit (Thermo Scientific). mRNA levels were determined by qPCR using the iTaq™ Universal SYBR® Green Supermix (Bio-rad) with HBV specific primers (forward: 5’-[…]-3’; reverse: 5’-[…]-3’). GAPDH mRNA levels were used for normalization (forward: 5’-[…]-3’; reverse: 5’-[…]-3’). Total DNA was extracted from cells 12 days after infection using the NucleoSpin Tissue kit (Macherey-Nagel). HBV DNA levels were determined by qPCR PerfeCTa qPCR Toughmix (Quanta Biosciences) with HBV specific primers (forward: 5’- […]-3’; reverse: 5’- […]-3’) and a probe (5’-TxRed-[…]-BHQ2-3’). β-globin levels were used for normalization (forward: 5’- […]-3’; reverse: 5’- […]-3’; probe: 5’-HEX- […]-BHQ1-3’). […]

mouse NTCP = target: T2, mouse NTCP (Mus musculus, UniProt O08705); assay: Taurocholate uptake in U2OS cells transiently transfected with mouse NTCP; assay type: cell-based; conditions: at the calculated IC50 value for hNTCP
T2 construct: expressed in transfected cells; host or cells: U2OS (transient transfection, PEI)
T2 sequence (O08705 1-362): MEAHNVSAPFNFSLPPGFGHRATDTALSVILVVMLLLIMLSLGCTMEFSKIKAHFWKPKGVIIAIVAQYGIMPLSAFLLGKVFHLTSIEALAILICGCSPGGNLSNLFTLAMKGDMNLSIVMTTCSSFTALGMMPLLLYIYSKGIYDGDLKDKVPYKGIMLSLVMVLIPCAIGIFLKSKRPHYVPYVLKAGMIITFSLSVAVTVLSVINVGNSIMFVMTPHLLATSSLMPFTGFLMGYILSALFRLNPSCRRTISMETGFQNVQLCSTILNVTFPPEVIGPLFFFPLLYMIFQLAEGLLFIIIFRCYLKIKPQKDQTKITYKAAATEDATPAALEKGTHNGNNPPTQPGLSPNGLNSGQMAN
Protocol: U2OS and MDCK cells were grown in Dulbecco’s modified Eagle’s medium (DMEM, Sigma-Aldrich), supplemented with 10% FCS (Gibco), 1% L-glutamine (Lonza), and 1% penicillin/streptomycin (Lonza). […] Transient transfection of U2OS cells with mouse NTCP (mNTCP) was done with PEI reagent (Brunschwig, Basel, Switzerland). Shortly, U2OS cells were seeded one day prior to transfection in 24-well plates. On the day of transfection, 0.5 µg DNA was mixed with 100 µl unsupplemented DMEM and 3 µg/µl PEI. After 10–15 minute incubation at RT, 20 µl of the transfection mix was added to each 24-well. Transfected cells were used in further experiments 48–72 hours later. Cell lines were passaged twice a week at a confluence of 80%, and incubated in a humidified atmosphere of 37 °C + 5% CO2.
as §1, §2

in vitro [5] = conditions: human

For `O=C(O)c1cc(/N=N/c2ccc(S(=O)(=O)Nc3ccccn3)cc2)ccc1O` [Sulfasalazine], the “concentration at which NTCP was inhibited in repeated measurements of TC-uptake and Myrcludex B binding” value (human NTCP [1]; U2OS-HA-hNTCP cells, both TC uptake and Myrcludex B binding) was no more than 10 µM, the IC50 (human NTCP [1]; U2OS-HA-hNTCP cells, concentrations 1 nM to 10 mM, read-out: IC50 for hNTCP-mediated TC uptake) was 9.6 µM and the “Taurocholate uptake into U2OS-HA-hNTCP cells (in words)” value (human NTCP [1]; increasing drug concentrations) was “reduced”. For the same compound, the viability at 2 h, 1 µM (in vitro [2]) was 98.1 ± 3%, the viability at 2 h, 10 µM (in vitro [2]) was 90.6 ± 6.9% and the viability at 2 h, 100 µM (in vitro [2]) was 85 ± 9.1%. The Ranking score (human NTCP [3]; ranking over the functional and the binding screening assay) was 34.8999, the B-score functional assay (human NTCP [3]; screening taurocholate uptake, 10 µM drug) was -3.903 and the “HBeAg, HBsAg, HBV DNA and HBV RNA after serum-derived HBV infection” value [4] was “reduced HBeAg, HBsAg, HBV DNA, and HBV RNA in a dose-dependent fashion”. The “HBeAg, HBsAg, HBV DNA and HBV RNA after serum-derived HBV infection” value ([4]; listed as sulfasalazine) was “reduced by sulfasalazine in a dose-dependent fashion”, the “inhibition of mouse Ntcp-mediated taurocholate uptake compared with human NTCP” value (mouse NTCP) was “inhibited similarly as human NTCP” and the “HBV infection in HepaRG cells (in words)” value (HBV; HBeAg, HBsAg, HBcAg, concentration-dependent) was “reduced HBV/HDV infection; also recorded: reduce”. The “concentration effective in reducing HBsAg” value (HBV; HepaRG cells infected with HBV, supernatant day 7 to 10) was no less than 50 µM, the “number of HBcAg positive stained cells” value (HBV; HepaRG cells, day 10 post HBV infection, 50 µM) was “mild reduction” and the viability at 2 h, 1 µM (in vitro [5]) was 100 ± 6.9%. It also gave a viability at 2 h, 10 µM (in vitro [5]) of 101 ± 8.4% and a viability at 2 h, 100 µM (in vitro [5]) of 97.8 ± 8%.
